Source: ChEMBL document CHEMBL4152191, “New potent and selective A1 adenosine receptor antagonists as potential tools for the treatment of gastrointestinal diseases” (Eur J Med Chem, 2018)
Active and inactive are the calls of the source. The rule behind the calls is not given here.

Legend:
[1] = target: Adenosine receptors; A1 & A3 (Homo sapiens) (UniProt P30542+P0DMS8); assay: Selectivity index, ratio of Ki for recombinant human adenosine A3 receptor to Ki for recombinant human adenosine A1 receptor
Adenosine receptor A1 [2] = target: T1, Adenosine receptor A1 (Homo sapiens, UniProt P30542); assay: Displacement of [3H]CCPA from recombinant human adenosine A1 receptor transfected in CHO cell membranes after 3 hrs by microbeta scintillation counting analysis
T1 sequence (P30542 whole entry): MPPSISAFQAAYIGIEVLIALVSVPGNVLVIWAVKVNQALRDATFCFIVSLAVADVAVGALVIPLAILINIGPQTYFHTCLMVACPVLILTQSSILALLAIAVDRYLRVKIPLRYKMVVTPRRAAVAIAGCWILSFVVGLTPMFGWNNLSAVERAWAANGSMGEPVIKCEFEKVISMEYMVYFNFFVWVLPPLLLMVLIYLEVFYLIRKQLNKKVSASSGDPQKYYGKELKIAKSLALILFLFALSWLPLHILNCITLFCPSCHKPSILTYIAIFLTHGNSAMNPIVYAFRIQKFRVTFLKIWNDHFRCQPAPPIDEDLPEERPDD

Homo sapiens [3] = organism: Homo sapiens; assay: Selectivity index, ratio of Ki for recombinant human adenosine A2A receptor to Ki for recombinant human adenosine A1 receptor
Homo sapiens [4] = organism: Homo sapiens; assay: Selectivity index, ratio of Ki for recombinant human adenosine A2B receptor to Ki for recombinant human adenosine A1 receptor
Adenosine receptor A3 = target: T2, Adenosine receptor A3 (Homo sapiens, UniProt P0DMS8); assay: Displacement of [3H]NECA from recombinant human adenosine A3 receptor transfected in CHO cell membranes after 3 hrs by microbeta scintillation counting analysis
T2 sequence (P0DMS8 whole entry): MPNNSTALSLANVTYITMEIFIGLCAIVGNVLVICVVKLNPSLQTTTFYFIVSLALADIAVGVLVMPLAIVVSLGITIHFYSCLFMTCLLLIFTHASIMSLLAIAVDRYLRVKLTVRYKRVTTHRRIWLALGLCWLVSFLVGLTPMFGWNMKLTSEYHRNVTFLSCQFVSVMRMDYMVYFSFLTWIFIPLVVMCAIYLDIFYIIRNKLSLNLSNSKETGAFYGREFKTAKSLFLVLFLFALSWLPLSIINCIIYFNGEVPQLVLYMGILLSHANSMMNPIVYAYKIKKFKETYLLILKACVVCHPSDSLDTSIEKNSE

Adenosine receptor A2b = target: T3, Adenosine receptor A2b (Homo sapiens, UniProt P29275); assay: Antagonist activity at recombinant human adenosine A2B receptor expressed in CHO cells assessed as inhibition of NECA-induced adenylyl cyclase activity after 20 mins by [alpha-32P]ATP assay; type: functional, cell-based
T3 sequence (P29275 whole entry): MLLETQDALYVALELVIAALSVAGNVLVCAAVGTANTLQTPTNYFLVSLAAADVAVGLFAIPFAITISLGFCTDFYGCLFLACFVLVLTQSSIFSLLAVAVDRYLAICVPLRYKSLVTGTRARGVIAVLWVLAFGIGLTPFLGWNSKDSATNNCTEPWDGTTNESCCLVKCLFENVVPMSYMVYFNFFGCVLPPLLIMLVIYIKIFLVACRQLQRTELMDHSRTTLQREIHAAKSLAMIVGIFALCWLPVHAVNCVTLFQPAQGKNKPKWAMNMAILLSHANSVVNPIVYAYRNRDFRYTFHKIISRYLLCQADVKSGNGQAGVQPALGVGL

Adenosine receptor A2a = Adenosine receptor A2a (Homo sapiens, UniProt P29274); assay: Displacement of [3H]NECA from recombinant human adenosine A2A receptor transfected in CHO cell membranes after 3 hrs by microbeta scintillation counting analysis
[5] = target: T4, Adenosine receptor A1 (Mus musculus) (UniProt Q60612); assay: Activity at adenosine A1 receptor in BALB/C mouse ileum assessed as effect on amplitude of rhythmic spontaneous contractions at 1 uM after 1 hr; type: functional
T4 sequence (whole entry): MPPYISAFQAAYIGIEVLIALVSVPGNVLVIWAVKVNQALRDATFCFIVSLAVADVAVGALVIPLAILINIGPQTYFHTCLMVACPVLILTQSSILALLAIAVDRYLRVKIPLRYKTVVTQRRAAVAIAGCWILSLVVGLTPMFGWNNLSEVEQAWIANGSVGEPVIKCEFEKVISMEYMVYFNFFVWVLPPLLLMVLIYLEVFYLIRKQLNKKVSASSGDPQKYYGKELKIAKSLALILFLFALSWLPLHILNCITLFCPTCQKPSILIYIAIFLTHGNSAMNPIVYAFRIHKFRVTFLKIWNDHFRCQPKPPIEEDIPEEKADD

Adenosine receptor A1 [6] = target: T1, Adenosine receptor A1; assay: Antagonist activity at recombinant human adenosine A1 receptor transfected in CHO cells assessed as inhibition of CCPA-induced cAMP accumulation preincubated for 10 mins followed by CCPA addition by GloSensor cAMP assay; type: functional, cell-based
[7] = target: T4, Adenosine receptor A1 (Mus musculus); assay: Activity at adenosine A1 receptor in BALB/C mouse ileum assessed as effect on frequency of rhythmic spontaneous contractions at 1 uM after 1 hr; type: functional
[8] = target: T4, Adenosine receptor A1 (Mus musculus); assay: Antagonist activity at adenosine A1 receptor in BALB/C mouse ileum assessed as reversal of CCPA-induced reduction in rhythmic spontaneous contractions at 1 uM after 1 hr; type: functional
[9] = target: T4, Adenosine receptor A1 (Mus musculus); assay: Reversible antagonist activity at adenosine A1 receptor in BALB/C mouse ileum assessed as reversal of CCPA-induced reduction in rhythmic spontaneous contractions at 1 uM incubated for 1 hr measured after compound wash out; type: functional
[10] = target: T4, Adenosine receptor A1 (Mus musculus); assay: Antagonist activity at adenosine A1 receptor in BALB/C mouse ileum assessed as reversal of 0.1 uM CCPA-induced reduction in rhythmic spontaneous contractions by measuring tissue response at 1 uM after 1 hr (reference value: 65%); type: functional; parameters: scale not given: the % may be the effect or the level left
[11] = target: T4, Adenosine receptor A1 (Mus musculus); assay: Antagonist activity at adenosine A1 receptor in BALB/C mouse ileum assessed as reversal of 1 uM CCPA-induced reduction in rhythmic spontaneous contractions by measuring tissue response at 1 uM after 1 hr (reference value: 20%); type: functional; parameters: scale not given: the % may be the effect or the level left

Adenosine receptor A2a, sequence (P29274 whole entry): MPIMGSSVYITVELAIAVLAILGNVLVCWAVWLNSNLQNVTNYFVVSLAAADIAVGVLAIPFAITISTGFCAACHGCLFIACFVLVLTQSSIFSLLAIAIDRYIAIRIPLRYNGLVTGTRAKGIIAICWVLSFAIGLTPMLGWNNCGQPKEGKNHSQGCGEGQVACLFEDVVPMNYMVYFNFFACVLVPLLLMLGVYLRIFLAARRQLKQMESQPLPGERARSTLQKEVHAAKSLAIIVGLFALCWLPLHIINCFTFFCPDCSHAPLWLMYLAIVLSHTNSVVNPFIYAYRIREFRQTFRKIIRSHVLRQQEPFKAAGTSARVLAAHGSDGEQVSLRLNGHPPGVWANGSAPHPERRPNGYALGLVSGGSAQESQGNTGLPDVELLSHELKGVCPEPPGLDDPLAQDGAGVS

Row | Ratio Ki [1] | Ki (Adenosine receptor A1 [2]) | Ratio Ki (Homo sapiens [3]) | Ratio Ki (Homo sapiens [4]) | Ki (Adenosine receptor A3) | Ki (Adenosine receptor A2b) | Ki (Adenosine receptor A2a) | Activity [5] | IC50 (Adenosine receptor A1 [6]) | Activity [7] | Kb [8] | inhibition [9] | Activity [10] | Activity [11] | SMILES
1 | 79 | 6.5 nM | 41 | 389 | 514 nM | 2530 nM | 267 nM | – | – | – | – | – | – | – | Cn1c(-c2cccc(Cl)c2)nc2c(NC3CCCC3)ncnc21
2 | 60 | 8 nM | 225 | > 3750 | 480 nM | > 30000 nM | 1800 nM | inactive | 61 nM | inactive | 177 nM | – | – | – | Cc1ccc(-c2nc3c(NC4CCCC4)ncnc3n2C)cc1
3 | 186 | 31 nM | 7 | 97 | 5780 nM | 3020 nM | 212 nM | – | – | – | – | – | – | – | CCn1c(-c2ccccc2)nc2c(N)ncnc21
4 | 71 | 10 nM | 31 | 902 | 707 nM | 9020 nM | 307 nM | – | – | – | – | – | – | – | CCn1c(-c2ccccc2)nc2c(NC3CCCCC3)ncnc21
5 | 166 | 10 nM | 102 | 1150 | 1660 nM | 11500 nM | 1020 nM | – | – | – | – | – | – | – | CCn1c(-c2ccccc2)nc2c(NC3CCOC3)ncnc21 (stereo not given)
6 | 67 | 18 nM | 101 | > 1670 | 1210 nM | > 30000 nM | 1820 nM | – | – | – | – | – | – | – | Cn1c(-c2ccc(Cl)cc2)nc2c(NC3CCCC3)ncnc21
7 | 0.5 | 54000 nM | > 1.9 | > 0.6 | 25700 nM | > 30000 nM | > 100000 nM | – | – | – | – | – | – | – | Cn1c(-c2ccc(C(=O)O)cc2)nc2c(NC3CCCC3)ncnc21
8 | 112 | 25 nM | 68 | 363 | 2810 nM | 9080 nM | 1700 nM | – | – | – | – | – | – | – | CCCn1c(-c2ccccc2)nc2c(NC3CCOC3)ncnc21 (stereo not given)
9 | 14 | 6 nM | 63 | 240 | 84 nM | 1440 nM | 379 nM | – | – | – | – | – | – | – | CCn1c(-c2ccccc2)nc2c(NC3CCC3)ncnc21
10 | 55 | 55 nM | 127 | > 545 | 3000 nM | > 30000 nM | 6980 nM | – | – | – | – | – | – | – | Cc1ccccc1-c1nc2c(NC3CCCC3)ncnc2n1C
11 | 45 | 242 nM | 26 | > 124 | 11000 nM | > 30000 nM | 6330 nM | – | – | – | – | – | – | – | Cn1c(-c2cccnc2)nc2c(NC3CCCC3)ncnc21
12 | 416 | 5.7 nM | 92 | > 5260 | 2370 nM | > 30000 nM | 527 nM | – | – | – | – | – | – | – | Cn1c(-c2ccccc2)nc2c(NC3CCCCC3)ncnc21
13 | 88 | 3.2 nM | 95 | 1170 | 280 nM | 3730 nM | 303 nM | – | – | – | – | – | – | – | Cn1c(-c2ccccc2)nc2c(NC3CCC3)ncnc21
14 | 184 | 6.2 nM | 387 | > 4840 | 1140 nM | > 30000 nM | 2400 nM | inactive | 32 nM | inactive | 43 nM | – | – | – | Cn1c(-c2ccc(F)cc2)nc2c(NC3CCCC3)ncnc21
15 | 91 | 3.9 nM | 86 | 1480 | 354 nM | 5790 nM | 334 nM | – | – | – | – | – | – | – | CCn1c(-c2ccccc2)nc2c(NC3CCCC3)ncnc21
16 | 302 | 2.8 nM | 178 | 3040 | 846 nM | 8510 nM | 498 nM | inactive | 14 nM | inactive | 17 nM | Active | 100% | 75% | Cn1c(-c2ccccc2)nc2c(NC3CCCC3)ncnc21
17 | 609 | 23 nM | 17 | 339 | 14000 nM | 7790 nM | 381 nM | – | – | – | – | – | – | – | Cn1c(-c2ccccc2)nc2c(N)ncnc21
18 | 18 | 15 nM | 24 | 52 | 264 nM | 774 nM | 365 nM | – | – | – | – | – | – | – | CCCn1c(-c2ccccc2)nc2c(NC3CCC3)ncnc21
19 | 82 | 6.2 nM | 73 | 973 | 510 nM | 6030 nM | 450 nM | inactive | 43 nM | inactive | 33 nM | – | – | – | Cc1cccc(-c2nc3c(NC4CCCC4)ncnc3n2C)c1
20 | 87 | 27 nM | 39 | 197 | 2360 nM | 5310 nM | 1060 nM | – | – | – | – | – | – | – | CCCn1c(-c2ccccc2)nc2c(NC3CCCCC3)ncnc21
21 | 92 | 101 nM | 5 | 10 | 9280 nM | 1040 nM | 492 nM | – | – | – | – | – | – | – | CCCn1c(-c2ccccc2)nc2c(N)ncnc21
22 | 25 | 75 nM | 24 | > 400 | 1850 nM | > 30000 nM | 1790 nM | – | – | – | – | – | – | – | COc1ccc(-c2nc3c(NC4CCCC4)ncnc3n2C)cc1
23 | 75 | 10 nM | 63 | 343 | 749 nM | 3430 nM | 634 nM | – | – | – | – | – | – | – | CCCn1c(-c2ccccc2)nc2c(NC3CCCC3)ncnc21
24 | 783 | 8 nM | 229 | 1660 | 6260 nM | 13300 nM | 1830 nM | – | – | – | – | – | – | – | Cn1c(-c2ccccc2)nc2c(NC3CCOC3)ncnc21 (stereo not given)

Row | SMILES | Ratio Ki [1] | Ki (Adenosine receptor A1 [2]) | Ratio Ki (Homo sapiens [3]) | Ratio Ki (Homo sapiens [4]) | Ki (Adenosine receptor A3) | Ki (Adenosine receptor A2b) | Ki (Adenosine receptor A2a) | Activity [5] | IC50 (Adenosine receptor A1 [6]) | Activity [7] | Kb [8] | inhibition [9] | Activity [10] | Activity [11]
25 | Cn1c(-c2ccccc2Cl)nc2c(NC3CCCC3)ncnc21 | 19 | 37 nM | 83 | > 811 | 720 nM | > 30000 nM | 3080 nM | – | – | – | – | – | – | –
26 | Cn1c(-c2ccc(O)cc2)nc2c(NC3CCCC3)ncnc21 | 31 | 17 nM | 31 | 1050 | 521 nM | 17800 nM | 532 nM | inactive | 52 nM | inactive | 66 nM | – | – | –
